Common to all, as to assay: growth of human tumour cells (NCI), 48 h
The subject of experiment [1] is SN12C renal.
The subject of experiment [2] is SK-MEL-28 melanoma.
In experiment [3] the test system is COLO 205 colon.
Experiment [4] deals with SF-539 CNS.
The test system of experiment [5] is SNB-75 CNS.
Experiment [6] concerns OVCAR-4 ovarian.
In experiment [7] the test system is KM12 colon.
For experiment [8], the system named is SF-295 CNS.
Experiment [9] concerns UACC-257 melanoma.
Experiment [10] concerns HCC-2998 colon.

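A five-concentration, 48-hour dose response in 96-well plates underlies each endpoint, interpolated linearly between surrounding concentrations. GI50 marks 50% less growth. TGI is the concentration that stops growth completely.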

On to `CCOC(=O)N1CCN(CCCCCOc2ccccc2C2CCCCC2)CC1`, for which the GI50 in experiment [1] is 6.34 µM; in experiment [2] it was 2.87 µM; in experiment [3] it was 2320 nM; in experiment [4], 6.39 µM; in experiment [5], 10.7 µM; in experiment [6], 9.2 µM. In addition, the GI50 in experiment [7] is 7.67 µM; in experiment [8] it was 2.65 µM. The TGI in [1] turned out to be 22.2 µM; in experiment [2], 16.3 µM; in experiment [3] it was 7.14 µM; in experiment [4] it was 19.1 µM; in [5] it was 23 µM; in experiment [6], 22.2 µM. The TGI in experiment [7] is 23.1 µM; in [8], 13.9 µM.
Take `Cc1cc2c(cc1Cl)S/C(=C/C(=O)O)C(Nc1cccc3nsnc13)=NS2(=O)=O`: the GI50 in experiment [1] is 27 µM; in experiment [2], 8.06 µM; in experiment [3], over 48300 nM; in [9], over 57.9 µM; in experiment [5], over 100 µM; in experiment [6], 18.7 µM. Moreover, the GI50 is 50.6 µM in experiment [7] and over 56.9 µM in experiment [8]. Further, the TGI was over 53.4 µM in experiment [1]; 19.4 µM in [2]; over 61.5 µM in [3]; over 70.7 µM in [9]; over 100 µM in experiment [5]; 42.7 µM in [6]. Further, the TGI is over 65.3 µM in experiment [7] and over 71.5 µM in experiment [8].
For the compound `Cc1cc(C)n(C2=NS(=O)(=O)c3ccccc3N2C)n1`, the TGI in [1], in experiment [2], in experiment [3], in experiment [9], in experiment [4] and in [10] was over 100 µM throughout. Moreover, the TGI in experiment [6], in [7] and in experiment [8] was over 100 µM in each case.
Take `Cc1nc(-c2cccnc2)sc1C(=O)/C=C/c1cccc([N+](=O)[O-])c1`: the TGI in experiment [1], in [2], in [3], in [9], in experiment [4] and in experiment [5] was over 100 µM each time. For the same compound, the TGI in experiment [10], in [7] and in [8] was over 100 µM throughout.
`C=CCNC(=O)N(CCC)CCCC(NC(C)=O)C(=O)NCc1ccccc1` (stereo not given): the TGI in experiment [1], in experiment [2], in experiment [3], in experiment [9], in [4] and in experiment [5] was over 100 µM each time. Also, the TGI in [6], in experiment [7] and in [8] was over 100 µM each time.
As to `CC1(O)CCn2c(=O)c3cc4ccccc4cc3c(=O)n2C1O` (stereo not given), the TGI in experiment [1], in experiment [2], in experiment [3], in experiment [9], in [4] and in [10] was over 100 µM in each case. Also, the TGI in [7] and in [8] was over 100 µM each time.
Turning to `CC(C)[O-].CC(C)[O-].O=c1cccccc1[O-].O=c1cccccc1[O-].[Ti+4]`, the TGI in experiment [2], in experiment [3], in experiment [9], in experiment [4], in experiment [5] and in experiment [10] was over 100 µM in each case. Further, the TGI was over 100 µM in experiment [6], 69.8 µM in [7] and over 100 µM in experiment [8]. For the same compound, the GI50 in experiment [4] was 29.3 µM.
For the compound `c1ccc2[nH]c(CNc3ccc(C4C[Se]N=N4)cc3)nc2c1` (stereo not given), the TGI in experiment [1], in [2], in experiment [3], in experiment [4], in experiment [5] and in [10] was over 100 µM in each case. The TGI is over 100 µM in experiment [6], over 100 µM in [7] and 92.3 µM in [8].
`N.N.N.N.N.O=S(=O)([O-])S(=O)(=O)[O-].[Co+3]`: the GI50 in experiment [1] was over 100 µM; in [2], over 100 µM; in experiment [3], over 100000 nM; in experiment [9], over 100 µM; in experiment [4], over 100 µM; in experiment [5] it was 62.8 µM. Further, the GI50 in experiment [6], in experiment [7] and in [8] was over 100 µM each time. The TGI in [1], in [2], in experiment [3], in [9], in experiment [4] and in experiment [5] was over 100 µM throughout. Further, the TGI in [6], in experiment [7] and in experiment [8] was over 100 µM in each case.
`CC1=NN(C(=O)c2ccncc2)C(=O)C1N=Nc1ccc(F)cc1` (stereo not given): the TGI was over 100 µM in [1]; over 100 µM in experiment [2]; over 100 µM in experiment [3]; over 100 µM in experiment [9]; over 100 µM in experiment [4]; 66.8 µM in experiment [5]. Besides, the TGI in experiment [6] and in experiment [8] was over 100 µM each time.
Regarding `C[C@]12C/C(=C/O)C(=O)C(O)=C1CC[C@@H]1C2CC[C@@]2(C)C1CC[C@@H]2O` (stereo not given in full), the TGI came out at 61.1 µM in [1]; 48.2 µM in experiment [2]; 44.5 µM in experiment [3]; 62 µM in [9]; 34.2 µM in experiment [4]; 34.9 µM in experiment [5]. Also, the figures for the TGI in experiment [6], in experiment [7] and in experiment [8] were 62.7 µM, 76.9 µM and 72.5 µM, respectively.
With `Cc1c2ccncc2c(C)c2c1[nH]c1ccc(O)c(OCC(F)(F)F)c12`, the TGI was 20.8 µM in experiment [1]; 22.4 µM in [2]; 22.3 µM in [3]; 21.4 µM in [9]; 16.3 µM in experiment [4]; 21.1 µM in experiment [5]. The TGI in [10] came to 19.3 µM; in experiment [6], 14 µM; in [8], 14.8 µM.
Turning to `COc1ccc2c(NCCCCCCNc3c4ccccc4nc4cc(OC)ccc34)c3ccccc3nc2c1`, the TGI in experiment [1] is 1.49 µM; in experiment [3], 0.189 µM; in [9], 4.12 µM; in [4], 1.03 µM; in [5], 1.74 µM; in experiment [10], 0.451 µM. Besides, the TGI in experiment [6] came out at 0.461 µM; in experiment [7], 2.03 µM; in experiment [8], 2.04 µM.
For `COc1c(O)c(OC)c2oc(-c3ccc(O)cc3)c(OC)c(=O)c2c1O`, the TGI in experiment [1], in [2], in experiment [3], in [9], in experiment [4] and in experiment [10] was over 100 µM throughout. Also, the TGI in [7] and in experiment [8] was over 100 µM each time.
Turning to `CCOC(=O)C1(Cc2ccc3ccccc3c2)CCCCC(=O)N1` (stereo not given), the TGI in experiment [1] was over 100 µM; in experiment [2] it was over 100 µM; in experiment [3], over 100 µM; in experiment [5] it was 9.22 µM; in experiment [10] it was 66.6 µM; in experiment [6], over 100 µM. In addition, in experiment [8], the TGI was determined as 35.2 µM.
Consider `N#C/C(=C1\SC(N=Nc2ccc(Cl)cc2)C(=O)N1c1ccccc1)c1nc2ccccc2[nH]1` (stereo not given), for which the TGI is over 100 µM in experiment [1]; over 100 µM in experiment [2]; over 100 µM in experiment [3]; 92.6 µM in experiment [9]; over 100 µM in experiment [4]; 65.5 µM in experiment [5]. The TGI in experiment [6] worked out at 55.8 µM; in experiment [8], 58.7 µM.
For `CN(C)C(=S)Nc1nnc(Nc2ccccc2)s1`, the TGI in experiment [1], in experiment [2], in experiment [3], in experiment [9], in [4] and in experiment [5] was over 100 µM in each case. The TGI in [10] and in experiment [6] was over 100 µM throughout.
For the compound `COc1ccccc1NC(=O)/C(=C/c1ccccc1)C(C)=O`, the TGI in experiment [1] is over 100 µM; in experiment [2], over 100 µM; in experiment [9] it was over 100 µM; in experiment [4] it was 62 µM; in experiment [10], over 100 µM; in experiment [6] it was over 100 µM. Besides, the TGI is over 100 µM in experiment [7] and 71 µM in experiment [8].
Consider `CCCCCCC(C)CCCCCCCCCCC(=O)O` (stereo not given), for which the TGI in experiment [1], in [2], in [3], in experiment [9], in experiment [4] and in experiment [5] was over 100 µM in each case. Further, the TGI in [6], in experiment [7] and in experiment [8] was over 100 µM each time.
Turning to `CN1c2ccccc2SC2C(c3ccccc3)=NOC21` (stereo not given), the TGI is over 100 µM in [1]; over 100 µM in [2]; over 100 µM in [3]; over 100 µM in experiment [4]; 56.6 µM in experiment [5]; over 100 µM in experiment [10]. The TGI in [6], in experiment [7] and in experiment [8] was over 100 µM each time.
With `c1ccc(-c2nc(N3CCCNCC3)c3nc(-c4ccccc4)oc3n2)cc1`, the GI50 in experiment [1] was 1.74 µM; in experiment [2] it was 1.71 µM; in [3], 1600 nM; in [9] it was 1.8 µM; in [4], 1.64 µM; in [10], 1530 nM. Further, the GI50 in experiment [6] was 1.98 µM; in experiment [7], 1.83 µM; in experiment [8], 1.81 µM. Further, the TGI worked out at 3.38 µM in experiment [1]; 3.15 µM in experiment [2]; 3.38 µM in [3]; 3.43 µM in experiment [9]; 3.03 µM in experiment [4]; 3.02 µM in experiment [10]. The TGI in [6] is 3.67 µM; in experiment [7], 3.38 µM; in [8], 3.25 µM.
Consider `Cc1c(C(=O)/C=C/c2ccccc2[N+](=O)[O-])[n+](=O)c2ccccc2n1[O-]`, for which the TGI turned out to be 18.6 µM in experiment [1]; 25.5 µM in [2]; 13.7 µM in [3]; 20.4 µM in [9]; 10.2 µM in [4]; 30.3 µM in [5]. In addition, the figures for the TGI in experiment [6], in [7] and in experiment [8] were 22.8 µM, 22 µM and 20.4 µM, respectively.
For `CCOC(=O)c1c(SCCN2CCOCC2)n(-c2ccccc2)c(=S)n(-c2ccccc2)c1=O`, the TGI in experiment [1] is over 100 µM; in experiment [2], 53.8 µM; in experiment [3], over 100 µM; in [9] it was 48.1 µM; in [5], over 100 µM; in [10], over 100 µM. Besides, the results for the TGI in [6], in experiment [7] and in [8] were over 100 µM, over 100 µM and 61.2 µM, respectively.
As for `O=C1c2ccccc2-c2c1c1ccccc1c(=O)n2CCNCCn1c2c(c3ccccc3c1=O)C(=O)c1ccccc1-2`, the GI50 in experiment [1] is over 25 µM; in [3] it was 2200 nM; in [9] it was over 25 µM; in [4] it was over 25 µM; in experiment [7], over 25 µM; in experiment [8] it was over 25 µM. Further, the TGI in [1], in experiment [3], in experiment [9], in experiment [4], in experiment [7] and in experiment [8] was over 25 µM each time.
On to `O=C1C2=C(CCC2)Nc2cccc3ncn1c23`, for which the TGI in experiment [1], in experiment [2], in [3], in experiment [9], in experiment [4] and in experiment [10] was over 100 µM in each case. The TGI in experiment [7] and in experiment [8] was over 100 µM throughout.
For `O=C1c2ccccc2-c2c1c1c(NCCCO)nc3ccccc3c1n2Cc1ccccc1`, the GI50 in experiment [1] is 26 µM; in experiment [2], 20.6 µM; in experiment [3] it was 34200 nM; in [9] it was 41.3 µM; in experiment [4], 18.5 µM; in experiment [5], 20.7 µM. Further, the GI50 in experiment [6] is 23 µM; in experiment [7], 31.3 µM; in [8] it was 22.3 µM. Besides, the TGI in experiment [1] was 62.5 µM; in [2], 38.1 µM; in experiment [3] it was over 100 µM; in [9] it was over 100 µM; in experiment [4], 36.7 µM; in experiment [5], 39.8 µM. Besides, the TGI in experiment [6] was 57 µM; in experiment [7], over 100 µM; in experiment [8], 45.3 µM.

These data come from PubChem BioAssay (NCI).
